Laboratory results published in the supplement of paper PMC8671470.

Each compound was assayed on MOLM-13 (assay: cell viability (% survival relative to DMSO control, bortezomib = 0%); higher = less cytotoxic). Conditions: 1000 nM; 72 h.
In short: (§1)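 Percent survival figures are means of duplicate wells. They were obtained by CellTiter-Glo luminescence after 10 AML and 5 CML cell lines spent 72 h at 37 °C with 5% CO2 in 384-well plates with compounds at 1, 10, 100, 1000 or 10000 nM. Vehicle was set to 100% and a 10 µM positive control to 0%.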
Compound `O=C1O/C(=C/Br)CCC1c1cccc2ccccc12` (stereo unspecified) [Bromoenol Lactone] has a cell viability of 91.5%.
`O=C(O)CCCCC(CCSCc1ccccc1)SCc1ccccc1` (stereo unspecified) [CPI-613] gave a cell viability of 75.5%.
For `CC(C)c1cc2c(c(O)c1O)[C@@]1(C(=O)O)CCCC(C)(C)[C@@H]1CC2` [Carnosic acid], the cell viability was 124%.
`CCN(CC)CCCC(C)Nc1ccnc2cc(Cl)ccc12` (stereo unspecified) [Chloroquine] showed a cell viability of 107%.
With `Nc1nc(Cl)nc2c1ncn2[C@H]1C[C@H](O)[C@@H](CO)O1` [Cladribine] the cell viability was 0.607%.
For `NCCCC(N)(C(=O)O)C(F)F` (stereo unspecified) [Difluoromethylornithine], the cell viability was 107%.

Same assay, conditions: 10000 nM; 72 h
`COc1ccc(S(=O)(=O)N2CCN(S(=O)(=O)c3ccc4c(c3)OCCO4)CC2)cc1` [BML283] was tested, and the cell viability was 97.8%.
`O=c1cc(-c2ccccc2)oc2cc(O)c(O)c(O)c12` [Baicalein] gave a cell viability of 69.3%.
In the case of `COC(=O)[C@]12CCC(C)(C)C[C@H]1[C@H]1C(=O)C=C3[C@@]4(C)C=C(C#N)C(=O)C(C)(C)[C@@H]4CC[C@@]3(C)[C@]1(C)CC2` [Bardoxolone methyl], the cell viability is reported as 87.5%.
For `O=c1oc2c(O)c(O)cc3c(=O)oc4c(O)c(O)cc1c4c23` [Benzoaric Acid], the cell viability was 110%.
Work on `Cc1c(-c2ccc(-c3ccccc3F)cc2)nc2ccc(F)cc2c1C(=O)O` [Brequinar] yielded a cell viability of 9.24%.
`O=C1O/C(=C/Br)CCC1c1cccc2ccccc12` (stereo unspecified) [Bromoenol Lactone] gave a cell viability of 44.1%.
In the case of `O=C(O)CCCCC(CCSCc1ccccc1)SCc1ccccc1` (stereo unspecified) [CPI-613], the cell viability is reported as 94.5%.
With `CC(C)c1cc2c(c(O)c1O)[C@@]1(C(=O)O)CCCC(C)(C)[C@@H]1CC2` [Carnosic acid] the cell viability was 106%.
Work on `CCN(CC)CCCC(C)Nc1ccnc2cc(Cl)ccc12` (stereo unspecified) [Chloroquine] yielded a cell viability of 101%.
Compound `Nc1nc(Cl)nc2c1ncn2[C@H]1C[C@H](O)[C@@H](CO)O1` [Cladribine] has a cell viability of -0.282%.
`NCCCC(N)(C(=O)O)C(F)F` (stereo unspecified) [Difluoromethylornithine] showed a cell viability of 101%.

The compounds below were run on Mono-Mac-6 in the same assay as above. Conditions: 1 nM; 72 h.
In short: as §1
`COc1ccc(S(=O)(=O)N2CCN(S(=O)(=O)c3ccc4c(c3)OCCO4)CC2)cc1` [BML283] gave a cell viability of 103%.
For `O=c1cc(-c2ccccc2)oc2cc(O)c(O)c(O)c12` [Baicalein], the cell viability was 103%.
`COC(=O)[C@]12CCC(C)(C)C[C@H]1[C@H]1C(=O)C=C3[C@@]4(C)C=C(C#N)C(=O)C(C)(C)[C@@H]4CC[C@@]3(C)[C@]1(C)CC2` [Bardoxolone methyl] gave a cell viability of 82.9%.
`O=c1oc2c(O)c(O)cc3c(=O)oc4c(O)c(O)cc1c4c23` [Benzoaric Acid] showed a cell viability of 108%.
`Cc1c(-c2ccc(-c3ccccc3F)cc2)nc2ccc(F)cc2c1C(=O)O` [Brequinar] showed a cell viability of 103%.
Work on `O=C1O/C(=C/Br)CCC1c1cccc2ccccc12` (stereo unspecified) [Bromoenol Lactone] yielded a cell viability of 98.4%.
Work on `O=C(O)CCCCC(CCSCc1ccccc1)SCc1ccccc1` (stereo unspecified) [CPI-613] yielded a cell viability of 92.8%.
Compound `CC(C)c1cc2c(c(O)c1O)[C@@]1(C(=O)O)CCCC(C)(C)[C@@H]1CC2` [Carnosic acid] has a cell viability of 92.7%.
Compound `CCN(CC)CCCC(C)Nc1ccnc2cc(Cl)ccc12` (stereo unspecified) [Chloroquine] has a cell viability of 105%.
With `Nc1nc(Cl)nc2c1ncn2[C@H]1C[C@H](O)[C@@H](CO)O1` [Cladribine] the cell viability was 113%.
Work on `NCCCC(N)(C(=O)O)C(F)F` (stereo unspecified) [Difluoromethylornithine] yielded a cell viability of 98.2%.

Same assay, conditions: 10 nM; 72 h
In the case of `COc1ccc(S(=O)(=O)N2CCN(S(=O)(=O)c3ccc4c(c3)OCCO4)CC2)cc1` [BML283], the cell viability is reported as 101%.
`O=c1cc(-c2ccccc2)oc2cc(O)c(O)c(O)c12` [Baicalein] gave a cell viability of 102%.
`COC(=O)[C@]12CCC(C)(C)C[C@H]1[C@H]1C(=O)C=C3[C@@]4(C)C=C(C#N)C(=O)C(C)(C)[C@@H]4CC[C@@]3(C)[C@]1(C)CC2` [Bardoxolone methyl] gave a cell viability of 103%.
`O=c1oc2c(O)c(O)cc3c(=O)oc4c(O)c(O)cc1c4c23` [Benzoaric Acid] gave a cell viability of 109%.
`Cc1c(-c2ccc(-c3ccccc3F)cc2)nc2ccc(F)cc2c1C(=O)O` [Brequinar] gave a cell viability of 95.9%.
Compound `O=C1O/C(=C/Br)CCC1c1cccc2ccccc12` (stereo unspecified) [Bromoenol Lactone] has a cell viability of 102%.
With `O=C(O)CCCCC(CCSCc1ccccc1)SCc1ccccc1` (stereo unspecified) [CPI-613] the cell viability was 86.9%.
For `CC(C)c1cc2c(c(O)c1O)[C@@]1(C(=O)O)CCCC(C)(C)[C@@H]1CC2` [Carnosic acid], the cell viability was 102%.
`CCN(CC)CCCC(C)Nc1ccnc2cc(Cl)ccc12` (stereo unspecified) [Chloroquine] showed a cell viability of 94.9%.
`Nc1nc(Cl)nc2c1ncn2[C@H]1C[C@H](O)[C@@H](CO)O1` [Cladribine] gave a cell viability of 82.5%.
With `NCCCC(N)(C(=O)O)C(F)F` (stereo unspecified) [Difluoromethylornithine] the cell viability was 92.7%.

Same assay, conditions: 100 nM; 72 h
In the case of `COc1ccc(S(=O)(=O)N2CCN(S(=O)(=O)c3ccc4c(c3)OCCO4)CC2)cc1` [BML283], the cell viability is reported as 99.8%.
In the case of `O=c1cc(-c2ccccc2)oc2cc(O)c(O)c(O)c12` [Baicalein], the cell viability is reported as 99.2%.
Compound `COC(=O)[C@]12CCC(C)(C)C[C@H]1[C@H]1C(=O)C=C3[C@@]4(C)C=C(C#N)C(=O)C(C)(C)[C@@H]4CC[C@@]3(C)[C@]1(C)CC2` [Bardoxolone methyl] has a cell viability of 123%.
For `O=c1oc2c(O)c(O)cc3c(=O)oc4c(O)c(O)cc1c4c23` [Benzoaric Acid], the cell viability was 103%.
`Cc1c(-c2ccc(-c3ccccc3F)cc2)nc2ccc(F)cc2c1C(=O)O` [Brequinar] gave a cell viability of 97.9%.
With `O=C1O/C(=C/Br)CCC1c1cccc2ccccc12` (stereo unspecified) [Bromoenol Lactone] the cell viability was 93.8%.
With `O=C(O)CCCCC(CCSCc1ccccc1)SCc1ccccc1` (stereo unspecified) [CPI-613] the cell viability was 96.3%.
Compound `CC(C)c1cc2c(c(O)c1O)[C@@]1(C(=O)O)CCCC(C)(C)[C@@H]1CC2` [Carnosic acid] has a cell viability of 103%.
With `CCN(CC)CCCC(C)Nc1ccnc2cc(Cl)ccc12` (stereo unspecified) [Chloroquine] the cell viability was 104%.
Work on `Nc1nc(Cl)nc2c1ncn2[C@H]1C[C@H](O)[C@@H](CO)O1` [Cladribine] yielded a cell viability of 1.25%.
For `NCCCC(N)(C(=O)O)C(F)F` (stereo unspecified) [Difluoromethylornithine], the cell viability was 94.2%.

Same assay, conditions: 1000 nM; 72 h
For `COc1ccc(S(=O)(=O)N2CCN(S(=O)(=O)c3ccc4c(c3)OCCO4)CC2)cc1` [BML283], the cell viability was 97.6%.
For `O=c1cc(-c2ccccc2)oc2cc(O)c(O)c(O)c12` [Baicalein], the cell viability was 117%.
In the case of `COC(=O)[C@]12CCC(C)(C)C[C@H]1[C@H]1C(=O)C=C3[C@@]4(C)C=C(C#N)C(=O)C(C)(C)[C@@H]4CC[C@@]3(C)[C@]1(C)CC2` [Bardoxolone methyl], the cell viability is reported as 44.6%.
For `O=c1oc2c(O)c(O)cc3c(=O)oc4c(O)c(O)cc1c4c23` [Benzoaric Acid], the cell viability was 92.5%.
`Cc1c(-c2ccc(-c3ccccc3F)cc2)nc2ccc(F)cc2c1C(=O)O` [Brequinar] showed a cell viability of 91.9%.
`O=C1O/C(=C/Br)CCC1c1cccc2ccccc12` (stereo unspecified) [Bromoenol Lactone] gave a cell viability of 95.6%.
`O=C(O)CCCCC(CCSCc1ccccc1)SCc1ccccc1` (stereo unspecified) [CPI-613] showed a cell viability of 94.2%.
In the case of `CC(C)c1cc2c(c(O)c1O)[C@@]1(C(=O)O)CCCC(C)(C)[C@@H]1CC2` [Carnosic acid], the cell viability is reported as 90.4%.
For `CCN(CC)CCCC(C)Nc1ccnc2cc(Cl)ccc12` (stereo unspecified) [Chloroquine], the cell viability was 93.4%.
`Nc1nc(Cl)nc2c1ncn2[C@H]1C[C@H](O)[C@@H](CO)O1` [Cladribine] showed a cell viability of 0.0892%.
`NCCCC(N)(C(=O)O)C(F)F` (stereo unspecified) [Difluoromethylornithine] gave a cell viability of 98.5%.
